In US10383845B2 (priority 2017, dated 2019):
Entries after “also recorded” stand apart in the source; their conditions may differ. Where two headings read alike, the source gives them in different places.

Key:
[1] = molecular target: Vitamin K Oxide Reductase (Homo sapiens, UniProt Q9BQB6); settings: cited from earlier work
[2] = system: bacteria; settings: cited from earlier work
[3] = system: patients suffering from chronic periodontitis; assay: Observation of patients suffering from chronic periodontitis under continued systemic medication with Warfarin; assay type: in vivo, human
Text: Such observations had not been reported in the medical literature or anywhere else.

[4] = Warfarin in plasma and saliva (oral fluid) of 14 patients undergoing Warfarin therapy (Lomonaco et al. 2014); assay type: in vivo, human; settings: inferred from the findings of Lomonaco
[5] = molecular target: T1, human VKOR (Homo sapiens, UniProt Q9BQB6); assay: Inhibition of the human VKOR by unbound plasma Warfarin; assay type: in vivo; settings: converted from ng/ml
T1 construct: from tissue

[6] = system: bacterial VKOR of several strains of mycobacteria; settings: cited from earlier work
[7] = molecular target: T1, human VKOR; settings: cited from earlier work

Sequence of Vitamin K Oxide Reductase (Q9BQB6 whole entry): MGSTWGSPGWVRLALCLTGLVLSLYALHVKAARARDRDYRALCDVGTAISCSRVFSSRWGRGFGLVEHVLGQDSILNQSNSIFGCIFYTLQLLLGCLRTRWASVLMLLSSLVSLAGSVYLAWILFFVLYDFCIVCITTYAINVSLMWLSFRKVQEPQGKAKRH
T1 sequence (Q9BQB6 whole entry): as above

Row | Structure (SMILES) | sensitivity of Vitamin K Oxide Reductase to inhibition [1] | antibacterial properties [2] | buildup of dental plaque and tartar [3] | chronic periodontitis / periodontal disease [3] | frequency and severity of gingival inflammation occurrences [3] | concentration in oral fluid sufficient to be effective [4] | unbound plasma concentration sufficient for effective inhibition of the human VKOR [5] [nM] | concentration at which bacterial VKOR was inhibited [6] [mM] | unbound plasma concentration sufficient for effective inhibition of the human VKOR [7] [ng/mL]
1 | O=c1oc2ccccc2c(O)c1Cc1c(O)c2ccccc2oc1=O [Dicumarol] | highly sensitive to inhibition | marked antibacterial properties | – | – | – | – | – | – | –
2 | CC(=O)CC(c1ccccc1)c1c(O)c2ccccc2oc1=O (stereo not shown) [Warfarin] | highly sensitive to inhibition | – | significant decrease; also recorded: reduced | marked improvement; also recorded: significant reduction | reduction; also recorded: reduced | less than 1×10^−7 M | ~30 | 1.6 to 4.5 | 9 ± 4
